Results: patent US20180186742A1, “PICOLINAMIDES AS FUNGICIDES” (Dow AgroSciences LLC, priority 2017, published 2018)
Like-named read-outs stand apart in the source and are kept apart here.

Assays:
Format in all cases: in vivo
Uncinula necator = test: Grape powdery mildew (UNCINE), disease control on grape seedlings; conditions: Erysiphe necator, 24 h, 1DP (1 Day Protectant) test at 100 ppm
Description: Technical grades of materials were dissolved in acetone, which were then mixed with nine volumes of water containing 110 ppm Triton X-100. The fungicide solutions were applied onto wheat seedlings using an automated booth sprayer to run-off. All sprayed plants were allowed to air dry prior to further handling. All fungicides were evaluated using the aforementioned method for their activity vs. all target diseases, unless stated otherwise. Wheat leaf blotch and brown rust activity were also evaluated using track spray applications, in which case the fungicides were formulated as EC formulations, containing 0.1% Trycol 5941 in the spray solutions. Grape seedlings (variety Carignane) were grown in soil-less Metro mix, with one plant per pot, and used in the test when approximately 1 month old. Plants were inoculated 24 hr after fungicide treatment by shaking spores from infected leaves over test plants. Plants were maintained in a greenhouse set at 20° C. until disease was fully developed. Fungicide formulation, application and disease assessment on sprayed leaves followed the procedures as described in the Example A.

Rhyncosporium secalis = test: Barley scald (RHYNSE), disease control on barley seedlings; conditions: Hordeum vulgare, 24 h, 1DP (1 Day Protectant) test at 100 ppm
Description: Technical grades of materials were dissolved in acetone, which were then mixed with nine volumes of water containing 110 ppm Triton X-100. The fungicide solutions were applied onto wheat seedlings using an automated booth sprayer to run-off. All sprayed plants were allowed to air dry prior to further handling. All fungicides were evaluated using the aforementioned method for their activity vs. all target diseases, unless stated otherwise. Wheat leaf blotch and brown rust activity were also evaluated using track spray applications, in which case the fungicides were formulated as EC formulations, containing 0.1% Trycol 5941 in the spray solutions. Barley seedlings (variety Harrington) were propagated in soil-less Metro mix, with each pot having 8 to 12 plants, and used in the test when first leaf was fully emerged. Test plants were inoculated by an aqueous spore suspension of Rhyncosporium secalis 24 hr after fungicide treatments. After inoculation the plants were kept in a dew room at 20° C. with 100% relative humidity for 48 hr. The plants were then transferred to a greenhouse set at 20° C. for disease to develop. Fungicide formulation, application and disease assessment on the sprayed leaves followed the procedures as described in the Example A.

Parastagonospora nodorum = test: Wheat glume blotch (LEPTNO), disease control on wheat seedlings; conditions: 1DP test at 100 ppm, read-out: LEPTNO disease control rating
Description: Technical grades of materials were dissolved in acetone, which were then mixed with nine volumes of water containing 110 ppm Triton X-100. The fungicide solutions were applied onto wheat seedlings using an automated booth sprayer to run-off. All sprayed plants were allowed to air dry prior to further handling. All fungicides were evaluated using the aforementioned method for their activity vs. all target diseases, unless stated otherwise. Wheat leaf blotch and brown rust activity were also evaluated using track spray applications, in which case the fungicides were formulated as EC formulations, containing 0.1% Trycol 5941 in the spray solutions. Wheat plants (variety Yuma) were grown from seed in a greenhouse in 50% mineral soil/50% soil-less Metro mix until the first leaf was fully emerged, with 7-10 seedlings per pot. These plants were inoculated with an aqueous spore suspension of Parastagonospora nodorum 24 hr after fungicide treatments. After inoculation the plants were kept in 100% relative humidity (one day in a dark dew chamber followed by two days in a lighted dew chamber at 20° C.) to permit spores to germinate and infect the leaf. The plants were then transferred to a greenhouse set at 20° C. for disease to develop. Fungicide formulation, application and disease assessment followed the procedures as described in the Example A.

[1] = system: Glomerella lagenarium; Anamorph: Colletotrichum lagenarium; test: Cucumber anthracnose (COLLLA), disease control on cucumber seedlings; conditions: Colletotrichum orbiculare, 1DP test at 100 ppm, read-out: COLLLA disease control rating
Description: Technical grades of materials were dissolved in acetone, which were then mixed with nine volumes of water containing 110 ppm Triton X-100. The fungicide solutions were applied onto wheat seedlings using an automated booth sprayer to run-off. All sprayed plants were allowed to air dry prior to further handling. All fungicides were evaluated using the aforementioned method for their activity vs. all target diseases, unless stated otherwise. Wheat leaf blotch and brown rust activity were also evaluated using track spray applications, in which case the fungicides were formulated as EC formulations, containing 0.1% Trycol 5941 in the spray solutions. Cucumber seedlings (variety Bush Pickle) were propagated in soil-less Metro mix, with each pot having one plant, and used in the test when 12 to 14 days old. Test plants were inoculated with an aqueous spore suspension of Colletotrichum lagenarium 24 hr after fungicide treatments. After inoculation the plants were kept in a dew room at 22° C. with 100% relative humidity for 48 hr to permit spores to germinate and infect the leaf. The plants were then transferred to a growth room set at 22° C. for disease to develop. Fungicide formulation, application and disease assessment on the sprayed leaves followed the procedures as described in the Example A.

Phakopsora pachyrhizi = test: Asian soybean rust (PHAKPA), disease control on soybean seedlings; conditions: High volume application at 25 ppm
How it was run: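 Two-week-old Williams 82 soybean seedlings were sprayed to run-off with compound in acetone/water (1:9) containing 0.011% Tween 20. Inoculation was 3 days before (curative) or 1 day after (protectant) treatment, followed by 24 h dark dew at 22 °C, 100% RH, then 23 °C; disease severity scored on sprayed leaves.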

[2] = 24 h, 1 Day Protectant, read-out: PHAKPA 1DP disease control rating
[3] = 72 h, 3 Day Curative, read-out: PHAKPA 3DC disease control rating

Row | Compound | pest or weed control at 100 ppm (Uncinula necator) [%] | pest or weed control at 100 ppm (Rhyncosporium secalis) [%] | pest or weed control at 100 ppm (Parastagonospora nodorum) [%] | pest or weed control at 100 ppm [1] [%] | pest or weed control at 25 ppm (Phakopsora pachyrhizi; [2]) [%] | pest or weed control at 25 ppm (Phakopsora pachyrhizi; [3]) [%]
1 | COc1ccnc(C(=O)N[C@@H](C)C(=O)O[C@@H](C)[C@H](c2ccc(F)cc2C)C(C)C)c1OC(=O)C(C)C [Compound 216] | > 80 | < 80 | > 80 | < 80 | > 80 | > 80
2 | CCOC(=O)Oc1c(OC)ccnc1C(=O)N(C(=O)OCC)[C@@H](C)C(=O)O[C@@H](C)[C@H](c1ccc(F)cc1C)C(C)C [Compound 371] | > 80 | < 80 | > 80 | > 80 | > 80 | > 80
3 | COc1ccnc(C(=O)N[C@@H](C)C(=O)O[C@@H](C)[C@H](c2ccc(F)cc2C)C(C)C)c1OC(=O)CC(C)C [Compound 356] | > 80 | < 80 | > 80 | < 80 | > 80 | > 80
4 | CCC(=O)Oc1c(OC)ccnc1C(=O)N[C@@H](C)C(=O)O[C@@H](C)[C@H](c1ccc(F)cc1C)C(C)C [Compound 357] | > 80 | < 80 | > 80 | > 80 | > 80 | > 80
5 | CCOC(=O)Oc1c(OC)ccnc1C(=O)N[C@@H](C)C(=O)O[C@@H](C)[C@H](c1ccc(F)cc1C)C(C)C [Compound 372] | > 80 | < 80 | > 80 | > 80 | > 80 | > 80
6 | COc1ccnc(C(=O)N[C@@H](C)C(=O)O[C@@H](C)[C@H](c2ccc(F)cc2C)C(C)C)c1OC(=O)C1CCCC1 [Compound 354] | > 80 | < 80 | > 80 | > 80 | > 80 | > 80
7 | COc1ccnc(C(=O)N[C@@H](C)C(=O)O[C@@H](C)[C@H](c2cccc(C)c2C)C(C)C)c1OC(C)=O [Compound 363] | > 80 | < 80 | < 80 | < 80 | > 80 | > 80
8 | COc1ccnc(C(=O)N[C@@H](C)C(=O)O[C@@H](C)[C@H](c2cccc(F)c2C)C(C)C)c1OC(C)=O [Compound 359] | > 80 | > 80 | > 80 | > 80 | > 80 | > 80
9 | COc1ccnc(C(=O)N[C@@H](C)C(=O)O[C@@H](C)[C@H](c2ccc(F)cc2C)C(C)C)c1OC(=O)OC(C)C [Compound 373] | > 80 | < 80 | > 80 | > 80 | > 80 | > 80
10 | CCC(CC)[C@@H](c1ccc(F)cc1C)[C@H](C)OC(=O)[C@H](C)NC(=O)c1nccc(OC)c1OC(C)=O [Compound 187] | > 80 | > 80 | < 80 | > 80 | > 80 | < 80
11 | COc1ccnc(C(=O)N[C@@H](C)C(=O)O[C@@H](C)[C@H](c2ccc(F)cc2C)C(C)C)c1OC(=O)C(C)(C)C [Compound 374] | > 80 | < 80 | > 80 | < 80 | > 80 | < 80
12 | COc1ccnc(C(=S)N[C@@H](C)C(=O)O[C@@H](C)[C@H](c2ccc(F)cc2C)C(C)C)c1OC(C)=O [Compound 219] | > 80 | < 80 | > 80 | < 80 | > 80 | > 80
13 | COc1cc[n+]([O-])c(C(=O)N[C@@H](C)C(=O)O[C@@H](C)[C@H](c2ccc(F)cc2C)C(C)C)c1O [Compound 218] | > 80 | < 80 | > 80 | < 80 | < 80 | < 80
14 | COc1ccnc(C(=O)N[C@@H](C)C(=O)O[C@@H](C)[C@H](c2ccccc2C)C(C)C)c1OC(C)=O [Compound 364] | > 80 | < 80 | < 80 | > 80 | > 80 | > 80
15 | COc1ccnc(C(=O)N[C@@H](C)C(=O)O[C@@H](C)[C@H](c2ccccc2C)C(C)C)c1OC(=O)C(C)C [Compound 375] | > 80 | < 80 | > 80 | > 80 | > 80 | > 80
16 | COCCC(=O)Oc1c(OC)ccnc1C(=O)N[C@@H](C)C(=O)O[C@@H](C)[C@H](c1ccc(F)cc1C)C(C)C [Compound 220] | > 80 | < 80 | > 80 | < 80 | > 80 | > 80
17 | COc1ccnc(C(=O)N[C@@H](C)C(=O)O[C@@H](C)[C@H](c2ccc(F)cc2C)C(C)C)c1OC(C)=O [Compound 186] | > 80 | < 80 | > 80 | < 0 | > 80 | > 80
18 | CCC(C)C(=O)Oc1c(OC)ccnc1C(=O)N[C@@H](C)C(=O)O[C@@H](C)[C@H](c1ccc(F)cc1C)C(C)C (stereo partly drawn) [Compound 355] | > 80 | < 80 | > 80 | > 80 | > 80 | > 80
19 | COc1ccnc2c(=O)n([C@@H](C)C(=O)O[C@@H](C)[C@H](c3ccc(F)cc3C)C(C)C)c(=O)oc12 [Compound 217] | > 80 | < 80 | > 80 | < 0 | > 80 | > 80
